{"source": "paper PMC11574021", "about": "“CEP192 localises mitotic Aurora-A activity by priming its interaction with TPX2” (The EMBO Journal, 2024)", "key": {"[1]": {"test_system": "PLK1 in RPE1 p53-/- cells", "assay": "Immunofluorescence, PLK1 centrosomal signal intensity, RPE1 p53-/-", "format": "cell-based, Homo sapiens", "conditions": "Aurora-A inhibitor 30 min", "description": "(§1) As noted in the figures, the following drugs were incubated with cells for 30 min at 37 °C: Aurora-B-i ZM447439 2 µM [10 mM], PLK1-I BI2536 1 µM [10 mM] and Aurora-A-i MLN8237 [5 mM] was used at 250 and 500 nM in U251 and RPE1 cells, respectively. Drugs were resuspended in DMSO to the stock concentrations indicated in square brackets. BI2536 (HY-50698), MLN8237 (HY-10971) and ZM447439 (HY-10128) were all purchased from MedChemExpress. For western blotting, a 20-min pre-treatment with proteasome inhibitor (20 µM MG-132, MerckMillipore, 47490 [20 mM]) was required prior to the addition of DMSO control or kinase inhibitors. This prevented mitotic exit as a consequence of checkpoint override following Aurora-A and Aurora-B inhibitor addition.\n(§2) For siRNA depletion, 1 × 10^5 cells were seeded in six-well plates and transfected as described above for 48 h prior to fixation. For all other experiments, 2.5 × 10^5 cells were seeded in six-well plates and grown for 24 h before fixation. All cells were grown on 12 mm diameter glass coverslips (VWR, 631–1577). […]\n(§3) For CEP192, LATS2-pS83, PCNT, PLK1 and γ-tubulin intensity, a 20-pixel diameter circle was centred over each centrosome and the intensity measured. […]"}, "[2]": {"test_system": "LATS2-pS83 in RPE1 p53-/- cells", "assay": "Immunofluorescence, LATS2-pS83 spindle pole signal intensity, RPE1 p53-/-", "format": "cell-based, Homo sapiens", "conditions": "Aurora-A inhibitor 30 min (500 nM)", "description": "as §1, §2, §3"}}, "data": [{"smiles": "COc1cc(Nc2ncc3c(n2)-c2ccc(Cl)cc2C(c2c(F)cccc2OC)=NC3)ccc1C(=O)O", "note": "[Alisertib]", "values": [{"measurement": "centrosomal Plk1 levels", "setting": "[1]", "result": "negative trend"}, {"measurement": "reduction of pS83 LATS2 levels", "setting": "[2]", "result": 50, "unit": "%"}, {"measurement": "reduction of pS83 LATS2 levels", "setting": "[2]; listed as Aurora-A inhibition", "result": "about 50%"}]}]}
